Results as given in patent US20240083919A1, “Metal Complexes and Methods for the Same” (Colgate-Palmolive Company, priority 2020, published 2024).
≈ marks a conversion by molar mass, not a printed value. Where two headings read alike, the source gives them in different places.

Tests used:
[1] = test system: Malassezia furfur; experiment: MIC by doubling dilutions, visual turbidity, Malassezia furfur; assay type: cell-based; details: for MIC: about 35° C., 3 to 5 days, highest dilution that completely inhibited growth; for Final Dilution (Ratio): doubling dilutions from initial concentration 0.5% (CHA-Zn) or 1% (others)
Protocol: (§1) A suspension of Malassezia furfur was also prepared and exposed to each of the series of doubling dilutions. The samples were incubated at about 35° C. for 3 to 5 days or until growth was apparent in a growth control tube. Following incubation, each of the samples were visually examined for growth on the basis of turbidity.

[2] = test system: Trichophyton rubrum; experiment: MIC by doubling dilutions, visual turbidity, Trichophyton rubrum; assay type: cell-based; details: for MIC: about 35° C., 3 to 14 days, highest dilution that completely inhibited growth; for Final Dilution (Ratio): doubling dilutions from initial concentration 0.5% (CHA-Zn) or 1% (others)
Protocol: as §1, with “of Trichophyton rubrum” for “of Malassezia furfur”, “to 14” for “to 5”, “turbidity. […] It should be appreciated that a relatively lower MIC value indicates a relatively greater efficacy against the microbe.” for “turbidity.”

Row | MIC ([1]; read-out: MIC) [µg/mL] | MIC ([2]; read-out: MIC) [µg/mL] | Compound | Final Dilution (Ratio) [1] [Ratio] | Final Dilution (Ratio) [2] [Ratio] | MIC [1] [ppm] | MIC ([1]; listed as zinc nitrate) [ppm] | MIC [2] [ppm]
1 | ~312 (≈ 1960 µM) | ~156 (≈ 980 µM) | CCCCCCCC(=O)NO [CHA, caprylhydroxamic acid] | 32 | 64 |  |  | 
2 |  |  | Cc1cc(CC(C)CC(C)(C)C)n(O)c(=O)c1.NCCO (stereo not drawn) [Piroctone Olamine] | 64 |  | 156 |  | 
3 |  |  | O=[N+]([O-])[O-].O=[N+]([O-])[O-].[Zn+2] [Zinc Nitrate (Zn(NO3)2), zinc nitrate] | 2 | 4 | >5000 | > 5000 | ~2500
4 |  |  | caprylhydroxamic-zinc complex [CHA-Zn complex] | 64 | 64 |  |  | 
5 |  |  | zinc pyrithione [Zinc pyrithione (ZPT)] |  | 512 |  |  | 20
